Test results: patent publication US20170202939A1, “PERSONALIZED CANCER VACCINES AND METHODS THEREFOR” (Washington University, priority 2014, published 2017)
No end group written: not given here.

B1: ARFGEF1 F1637L AAS peptide QTIDNIVFL (MEL21) (peptide)
peptide: QTIDNIVFL
notes: Synthetic nonamer carrying a tumor amino acid substitution
B2: GPX8 L27P AAS peptide LLSIVPCTV (MEL21) (peptide)
peptide: LLSIVPCTV
notes: as for B1
B3: KDM1B G394E AAS peptide IIGAGPAEV, anchor-modified at P9 (MEL21) (peptide)
peptide: IIGAGPAEV
B4: PHKA2 S264F AAS peptide LLSIIFFPA (MEL21) (peptide)
peptide: LLSIIFFPA
notes: as for B1
B5: TKT R438W AAS peptide AMFWSVPTV, anchor-modified at P9 (MEL21) (peptide)
peptide: AMFWSVPTV
B6: TMEM48 F169L AAS peptide CLNEYHLFL (MEL21) (peptide)
peptide: CLNEYHLFL
notes: as for B1
B7: AKAP13 Q285K AAS peptide KLMNIQQKL (MEL38) (peptide)
peptide: KLMNIQQKL
notes: as for B1
B8: ARFGEF1 R782C AAS peptide FVSALCMFL (MEL38) (peptide)
peptide: FVSALCMFL
B9: HSD17B7 H108Y AAS peptide YISKCWDYA (MEL38) (peptide)
peptide: YISKCWDYA
notes: as for B1
B10: OR8B3 T190I AAS peptide QLSCISTYV (MEL38) (peptide)
peptide: QLSCISTYV
notes: as for B1
B11: PRKCDBP S153F AAS peptide CLFPQTLAA (MEL38) (peptide)
peptide: CLFPQTLAA
B12: SEC24A P469L AAS peptide FLYNLLTRV (MEL38) (peptide)
peptide: FLYNLLTRV
notes: as for B1
B13: UTRN Q1058K AAS peptide QLDKCSAFV (MEL38) (peptide)
peptide: QLDKCSAFV
notes: as for B1
B14: EXOC8 Q656P AAS peptide IILVAVPHV (MEL218) (peptide)
peptide: IILVAVPHV
B15: LARP7 N515D AAS peptide AVIDAYTEI (MEL218) (peptide)
peptide: AVIDAYTEI
notes: as for B1
B16: MRPS5 P59L AAS peptide HLYASLSRV, anchor-modified at P9 (MEL218) (peptide)
peptide: HLYASLSRV
B17: MRPS17 P167L AAS peptide VLLRALPVL (MEL218) (peptide)
peptide: VLLRALPVL
notes: as for B1
B18: PABPC1 R520Q AAS peptide MLGEQLFPL (MEL218) (peptide)
peptide: MLGEQLFPL
notes: as for B1
B19: SMOX K499N AAS peptide KLANPLPYT (MEL218) (peptide)
peptide: KLANPLPYT
notes: as for B1
B20: SRP9 I64M AAS peptide IMAHCILDL (MEL218) (peptide)
peptide: IMAHCILDL
notes: as for B1

Columns and labels:
HLA-A*02:01 [1] = molecular target: T1, HLA-A*02:01 (Homo sapiens, UniProt P04439, D140Y/D185E/D98H/E176V/E277Q/G131W/G231S/I119V/I121R/I166T/I218V/L300P/L318F/N151K/N90K/P208A/P217A/Q86G/Q94H/R138H/R169H/T345S); assay: fluorescence polarization-based competitive peptide binding assay; details: fluorescence polarization-based competitive peptide-binding assay; high affinity log(IC50; nM) <3.7; read-out: Experimental Affinity log(IC50) (converted)
T1 construct: purchased Pure Protein, L.L.C

[2] = tested on: neoantigen-specific CD8+ T cells; assay: immune monitoring of vaccinated patients, HLA/peptide dextramer (tetramer) assay on cultured PBMC; assay type: in vivo, human; details: for Immunogenicity: AAS-directed CD8+ T cell response in vaccinated patient; for Spontaneous Immunity: pre-vaccine (naturally-occurring) CD8+ T cell response, immune monitoring assay
Description: Immunologic monitoring (Examples 1-10). Immunologic analysis to evaluate the kinetics and magnitude of T cell response to gp100 peptides was performed using PBMCs collected weekly (prior to vaccination and until week 21. Fresh PBMCs obtained by Ficoll-Hypaque gradient centrifugation were adjusted to 2×10^6 cells/ml in Stemline media (Sigma-Aldrich) containing 5% human AB-serum, and dispersed at 1 ml/well in 24-well plates. Cultures were set up for the gp100 peptides and the CMV pp65 peptide (positive peptide control). Cultures were pulsed with 40 μg/ml peptide and 50 U/ml IL-2 fed starting at 48 hours and every other day thereafter. On day 12 (peak of response; the inventors' unpublished observation), cultures were harvested, counted, and stained for flow cytometry analysis. To assess the antigen-specific T cell frequency, cells were stained with HLAA*0201/peptide tetramers (Beckman Coulter) for 30 minutes at room temperature, followed by addition of FITC-conjugated CD4, CD14, CD19, and CD56 and allophycocyanin-conjugated CD8 (Invitrogen) for 15 minutes at 4° C. Cells were washed and resuspended in FACS buffer, and 7AAD was added 5 minutes before analysis. Control CMV pp65-specific CD8+ T cells were detected in all CMV-seropositive patients before and after immunization. A negative HLA-A*0201/HIV gag peptide tetramer control was included. 25,000 events in the CD8+ gate were collected using a hierarchical gating strategy that included FSC/SSC and excluded 7AAD+ (dead) cells and CD4+CD14+CD19+CD56+ cells. Data were acquired and analyzed using Flow-Jo software.
To examine the kinetics and magnitude of T cell immunity to AAS peptides upon vaccination, peripheral blood mononuclear cells (PBMC) were collected prior to vaccination and weekly thereafter. The CD8+ T cell response to each peptide was analyzed using a HLA-A*02:01/AAS-peptide dextramer assay after a single round of in vitro stimulation. FIG. 30A illustrates kinetics of immune responses to neoantigens. Time is recorded in weeks (0 indicates pre-vaccination). Culture conditions and staining details are described infra. Antigen-specific numbers were calculated based on dextramer percentage and total live cell yields. Immunologic analysis to evaluate the kinetic and magnitude of T cell response to AAS-encoding and gp100-derived peptides was performed using PBMC collected weekly, starting before DC vaccination (Pre-vaccine in the figures) as described (Carreno, B. M., et al., J. Clin. Invest., 123, 3383-3394, 2013). Briefly, fresh PBMC obtained by Ficoll-Paque PLUS gradient centrifugation were cultured with 40 ug/mL peptide and IL-2 (50 U/mL). On day 10 (peak of response, unpublished data, labeled “Post-Vaccine” in the figures), neoantigen specific T cell frequencies were determined by staining with HLA-A*02:01/peptide dextramers (Immudex), followed by addition of FITC-CD4, -CD14, -CD19 (Invitrogen) and ALEXA® 488-CD56 (BD Pharmigen), APC-CD8 (Invitrogen). Cells were washed, resuspended in FACS buffer containing 7AAD. Twenty five thousand events in the CD8+ gate were collected using a hierarchical gating strategy that included FSC/SSC and excluded 7AAD-positive (dead cells) and CD4/14/19/56-positive cells. PBMC/CD8+ T cells derived from an unrelated HLA-A*02:01 patient were used as negative controls for assessing specificity of HLA-A*02:01/AAS-peptide dextramers (data not shown). Data were acquired and analyzed using Flow-Jo software. […] FIG. 30B illustrates the frequency of neoantigen specific T cells in CD8+ populations isolated directly from PBMC samples and after ex-vivo expansion using autologous DC and artificial antigen presenting cells. For dominant neoantigens TMEM48 F169L, SEC24A P469L and EXOC8 Q656, results are shown for samples obtained before vaccination (Pre-vaccine) and after 3 vaccine doses (Post-vaccine). For remaining neoantigens, results obtained with post-vaccine PBMC samples are shown. […]

HLA-A*02:01 [3] = molecular target: T2, HLA-A*02:01 (human); assay: fluorescence polarization-based competitive peptide-binding assay
T2 construct: The form of the HLA molecule in the fluorescence polarization assay is not described; also called HLA-A2

| Molecule | IC50 (HLA-A*02:01 [1]) | Immunogenicity [2] | Spontaneous Immunity [2] | log(IC50, nM) (HLA-A*02:01 [3]) | also measured |
| --- | --- | --- | --- | --- | --- |
| AVIDAYTEI | 25700 nM | No | No | – | – |
| CLFPQTLAA | 3390 nM | No | No | – | – |
| FVSALCMFL | – | No | No | – | – |
| G280-9V: HLA-A*0201-restricted gp100 melanoma antigen-derived peptide, positive control for vaccination [reference compound] | – | – | – | – | T cell response upon vaccination ([2]; post-vaccine PBMC, dextramer assay): enhanced in patients MEL21 and MEL218 and revealed in patient MEL38; pre-existing (naturally occurring) T cell immunity ([2]; pre-vaccine PBMC samples after in vitro stimulation): Two (MEL21 and MEL218) of the three patients had pre-existing immunity |
| HLYASLSRV | 1910 nM | – | – | – | – |
| IIGAGPAEV | 6610 nM | – | – | – | – |
| IMAHCILDL | 10500 nM | No | No | – | – |
| KLANPLPYT | 5370 nM | No | No | – | – |
| LLSIIFFPA | 7940 nM | No | No | – | – |
| LLSIVPCTV | 1230 nM | No | No | – | – |
| QLDKCSAFV | 2290 nM | No | No | – | – |
| QTIDNIVFL | 1550 nM | No | No | – | – |
| VLLRALPVL | 1120 nM | No | No | – | – |
| YISKCWDYA | 19100 nM | No | No | – | – |
| B1 | – | – | – | 3.19 log(IC50, nM) | – |
| B2 | – | – | – | 3.09 log(IC50, nM) | – |
| B3 | – | – | – | 3.82 log(IC50, nM) | – |

| Molecule | IC50 (HLA-A*02:01 [1]) | Immunogenicity [2] | Spontaneous Immunity [2] | log(IC50, nM) (HLA-A*02:01 [3]) | also measured |
| --- | --- | --- | --- | --- | --- |
| B4 | – | – | – | 3.9 log(IC50, nM) | – |
| B5 | – | – | – | 2.35 log(IC50, nM) | – |
| B6 | – | – | – | 3.09 log(IC50, nM) | – |
| B7 | – | – | – | 3.07 log(IC50, nM) | – |
| B8 | – | – | – | 3.18 log(IC50, nM) | – |
| B9 | – | – | – | 4.28 log(IC50, nM) | – |
| B10 | – | – | – | 3.1 log(IC50, nM) | – |
| B11 | – | – | – | 3.53 log(IC50, nM) | – |
| B12 | – | – | – | 2.68 log(IC50, nM) | – |
| B13 | – | – | – | 3.36 log(IC50, nM) | – |
| B14 | – | – | – | 3.06 log(IC50, nM) | – |
| B15 | – | – | – | 4.41 log(IC50, nM) | – |
| B16 | – | – | – | 3.28 log(IC50, nM) | – |
| B17 | – | – | – | 3.05 log(IC50, nM) | – |
| B18 | – | – | – | 2.35 log(IC50, nM) | – |
| B19 | – | – | – | 3.73 log(IC50, nM) | – |
| B20 | – | – | – | 4.02 log(IC50, nM) | – |
